Tested on: E. coli strain W3110
Assay: Synergy assays: Biolog chemical sensitivity panels with Group IB metal, coefficient of drug interaction (CDI) from relative growth
Type: cell-based
Conditions: for CDI (coefficient of drug interaction), copper mixed with biocide: Copper (mM) section; for CDI (coefficient of drug interaction), gold + biocide: Gold (μM)
[1] = Silver 0.5 μM, 3rd of four biocide concentrations, E. coli
[2] = Silver 0.5 μM, 4th of four biocide concentrations, E. coli
[3] = Silver 1.0 μM, 3rd of four biocide concentrations, E. coli
[4] = Silver 1.0 μM, 4th of four biocide concentrations, E. coli
[5] = Silver 5.0 μM, 3rd of four biocide concentrations, E. coli
[6] = Silver 5.0 μM, 4th of four biocide concentrations, E. coli
[7] = 1st of 3 copper concentrations (value not shown), 4th of four biocide concentrations
[8] = 2nd of 3 copper concentrations (value not shown), 4th of four biocide concentrations
[9] = 3rd of 3 copper concentrations (value not shown), 4th of four biocide concentrations
[10] = Gold section of Table 5, first of three gold concentrations (μM, value not given), biocide concentration 4 of 4
[11] = Gold section of Table 5, second of three gold concentrations (μM, value not given), biocide concentration 4 of 4
[12] = Gold section of Table 5, third of three gold concentrations (μM, value not given), biocide concentration 4 of 4

c1ccc(-c2ccccn2)nc1 [2,2′-dipyridyl]
1.07: CDI (coefficient of drug interaction), silver + biocide (Silver 1.0 μM, 1st of four biocide concentrations, E. coli)
1.21: CDI (coefficient of drug interaction), silver + biocide (Silver 5.0 μM, 1st of four biocide concentrations, E. coli)
0.72: CDI (coefficient of drug interaction) ([…], biocide concentration 1 of 4, E. coli)
0.76: CDI (Copper 0.1 mM, biocide concentration 1 of 4) | CDI (Copper 1.0 mM, biocide concentration 1 of 4)
1.09: CDI (coefficient of drug interaction) (Gold 25 μM, biocide concentration 1 of 4, E. coli)
1.55: CDI (coefficient of drug interaction), silver + biocide (Silver 0.5 μM, 1st of four biocide concentrations, E. coli)
0.61: CDI (Copper 0.5 mM, biocide concentration 1 of 4)
Tox: CDI (Copper 0.1 mM, biocide concentration 2 of 4) | CDI (Copper 0.1 mM, biocide concentration 3 of 4) | CDI (Copper 0.1 mM, biocide concentration 4 of 4) | CDI (Copper 0.5 mM, biocide concentration 2 of 4) | CDI (Copper 0.5 mM, biocide concentration 3 of 4) | CDI (Copper 0.5 mM, biocide concentration 4 of 4) | CDI (Copper 1.0 mM, biocide concentration 2 of 4) | CDI (Copper 1.0 mM, biocide concentration 3 of 4) | CDI (Copper 1.0 mM, biocide concentration 4 of 4) | CDI (coefficient of drug interaction) (Gold 5 μM, biocide concentration 2 of 4, E. coli) | CDI (coefficient of drug interaction) (Gold 5 μM, biocide concentration 3 of 4, E. coli) | CDI (coefficient of drug interaction) (Gold 5 μM, biocide concentration 4 of 4, E. coli) | CDI (coefficient of drug interaction) (Gold 25 μM, biocide concentration 2 of 4, E. coli) | CDI (coefficient of drug interaction) (Gold 25 μM, biocide concentration 3 of 4, E. coli) | CDI (coefficient of drug interaction) (Gold 25 μM, biocide concentration 4 of 4, E. coli) | CDI (coefficient of drug interaction), silver + biocide (Silver 0.5 μM, 2nd of four biocide concentrations, E. coli) | CDI (coefficient of drug interaction), silver + biocide [1] | CDI (coefficient of drug interaction), silver + biocide [2] | CDI (coefficient of drug interaction), silver + biocide (Silver 1.0 μM, 2nd of four biocide concentrations, E. coli) | CDI (coefficient of drug interaction), silver + biocide [3] | CDI (coefficient of drug interaction), silver + biocide [4] | CDI (coefficient of drug interaction), silver + biocide (Silver 5.0 μM, 2nd of four biocide concentrations, E. coli) | CDI (coefficient of drug interaction), silver + biocide [5] | CDI (coefficient of drug interaction), silver + biocide [6] | CDI (coefficient of drug interaction) ([…], biocide concentration 2 of 4, E. coli) | CDI (coefficient of drug interaction) ([…], biocide concentration 3 of 4, E. coli) | CDI (coefficient of drug interaction) ([…], biocide concentration 4 of 4, E. coli)

CC(C)c1nc2nc(N)nc(N)c2nc1C(C)C [2,4-Diamino-6,7-diisopropylpteridine]
Tox: CDI (coefficient of drug interaction), copper mixed with biocide [7] | CDI (coefficient of drug interaction), copper mixed with biocide [8] | CDI (coefficient of drug interaction), copper mixed with biocide [9] | CDI (coefficient of drug interaction) [10] | CDI (coefficient of drug interaction) [11] | CDI (coefficient of drug interaction) [12] | CDI (coefficient of drug interaction), silver + biocide [2] | CDI (coefficient of drug interaction), silver + biocide [4] | CDI (coefficient of drug interaction), silver + biocide [6]

O=[N+]([O-])c1ccc(O)c([N+](=O)[O-])c1 [2,4-dintrophenol]
1.27: CDI (coefficient of drug interaction), gold + biocide (first of 3 gold concentrations, biocide concentration 3 of 4)
0.50: CDI (coefficient of drug interaction) (Copper (mM), 3rd of 3 copper concentrations (head line not shown), biocide concentration 1 of 4, E. coli)
0.80: CDI (Silver 0.5 μM, biocide concentration 2 of 4)
1.14: CDI (coefficient of drug interaction) (Copper (mM), 3rd of 3 copper concentrations (head line not shown), biocide concentration 3 of 4, E. coli)
0.72: CDI (Silver 0.5 μM, biocide concentration 1 of 4)
0.74: CDI (coefficient of drug interaction), gold + biocide (third of 3 gold concentrations, biocide concentration 2 of 4)
0.76: CDI (coefficient of drug interaction) (Copper (mM), 2nd of 3 copper concentrations (head line not shown), biocide concentration 1 of 4, E. coli)
0.94: CDI (coefficient of drug interaction), gold + biocide (second of 3 gold concentrations, biocide concentration 2 of 4)
0.85: CDI (coefficient of drug interaction), gold + biocide (third of 3 gold concentrations, biocide concentration 1 of 4)
0.87: CDI (coefficient of drug interaction) (Copper (mM), 1st of 3 copper concentrations (head line not shown), biocide concentration 1 of 4, E. coli)
0.61: CDI (coefficient of drug interaction), gold + biocide (third of 3 gold concentrations, biocide concentration 3 of 4)
1.04: CDI (Silver 5.0 μM, biocide concentration 2 of 4) | CDI (Silver 5.0 μM, biocide concentration 3 of 4)
0.91: CDI (Silver 1.0 μM, biocide concentration 1 of 4)
1.05: CDI (coefficient of drug interaction), gold + biocide (first of 3 gold concentrations, biocide concentration 1 of 4)
1.02: CDI (coefficient of drug interaction), gold + biocide (first of 3 gold concentrations, biocide concentration 2 of 4) | CDI (coefficient of drug interaction), gold + biocide (second of 3 gold concentrations, biocide concentration 1 of 4) | CDI (coefficient of drug interaction), gold + biocide (second of 3 gold concentrations, biocide concentration 3 of 4) | CDI (Silver 1.0 μM, biocide concentration 3 of 4)
Tox: CDI (coefficient of drug interaction) (Copper (mM), 1st of 3 copper concentrations (head line not shown), biocide concentration 4 of 4, E. coli) | CDI (coefficient of drug interaction) (Copper (mM), 2nd of 3 copper concentrations (head line not shown), biocide concentration 4 of 4, E. coli) | CDI (coefficient of drug interaction) (Copper (mM), 3rd of 3 copper concentrations (head line not shown), biocide concentration 4 of 4, E. coli) | CDI (coefficient of drug interaction), gold + biocide (first of 3 gold concentrations, biocide concentration 4 of 4) | CDI (coefficient of drug interaction), gold + biocide (second of 3 gold concentrations, biocide concentration 4 of 4) | CDI (coefficient of drug interaction), gold + biocide (third of 3 gold concentrations, biocide concentration 4 of 4) | CDI (Silver 0.5 μM, biocide concentration 4 of 4) | CDI (Silver 1.0 μM, biocide concentration 4 of 4) | CDI (Silver 5.0 μM, biocide concentration 4 of 4)
0.86: CDI (Silver 0.5 μM, biocide concentration 3 of 4)
0.49: CDI (coefficient of drug interaction) (Copper (mM), 3rd of 3 copper concentrations (head line not shown), biocide concentration 2 of 4, E. coli)
0.99: CDI (coefficient of drug interaction) (Copper (mM), 2nd of 3 copper concentrations (head line not shown), biocide concentration 3 of 4, E. coli)
1.10: CDI (coefficient of drug interaction) (Copper (mM), 1st of 3 copper concentrations (head line not shown), biocide concentration 3 of 4, E. coli) | CDI (Silver 5.0 μM, biocide concentration 1 of 4)
0.64: CDI (coefficient of drug interaction) (Copper (mM), 2nd of 3 copper concentrations (head line not shown), biocide concentration 2 of 4, E. coli)
0.83: CDI (coefficient of drug interaction) (Copper (mM), 1st of 3 copper concentrations (head line not shown), biocide concentration 2 of 4, E. coli) | CDI (Silver 1.0 μM, biocide concentration 2 of 4)

O=[N+]([O-])c1ncc[nH]1 [2-nitroimidazole]
Tox: CDI (coefficient of drug interaction), copper mixed with biocide (1st of 3 copper concentrations (value not shown), 3rd of four biocide concentrations) | CDI (coefficient of drug interaction), copper mixed with biocide [7] | CDI (coefficient of drug interaction), copper mixed with biocide (2nd of 3 copper concentrations (value not shown), 3rd of four biocide concentrations) | CDI (coefficient of drug interaction), copper mixed with biocide [8] | CDI (coefficient of drug interaction), copper mixed with biocide (3rd of 3 copper concentrations (value not shown), 3rd of four biocide concentrations) | CDI (coefficient of drug interaction), copper mixed with biocide [9] | CDI (coefficient of drug interaction) (Gold section of Table 5, first of three gold concentrations (μM, value not given), biocide concentration 3 of 4) | CDI (coefficient of drug interaction) [10] | CDI (coefficient of drug interaction) (Gold section of Table 5, second of three gold concentrations (μM, value not given), biocide concentration 3 of 4) | CDI (coefficient of drug interaction) [11] | CDI (coefficient of drug interaction) (Gold section of Table 5, third of three gold concentrations (μM, value not given), biocide concentration 3 of 4) | CDI (coefficient of drug interaction) [12] | CDI (coefficient of drug interaction), silver + biocide [1] | CDI (coefficient of drug interaction), silver + biocide [2] | CDI (coefficient of drug interaction), silver + biocide [3] | CDI (coefficient of drug interaction), silver + biocide [4] | CDI (coefficient of drug interaction), silver + biocide [5] | CDI (coefficient of drug interaction), silver + biocide [6]
